These results are taken from paper PMC12311895, “Single-Molecule Protein Interactions and Unfolding Revealed by Plasmon-Enhanced Fluorescence” (Analytical Chemistry, 2025).

For assay [1], the system named is PDZ directly conjugated to gold nanorods. Nature of the assay: peptide binding to PDZ conjugated directly to gold nanorods via a cysteine linker. As to conditions: direct conjugation to gold nanorods via cysteine linker, no DNA. The source says:
In this study we utilize single-crystalline GNPs (nanorods) to probe protein–protein interactions at the single-molecule level. To facilitate single-molecule studies the particles are immobilized onto a glass coverslip to enable the imaging of single nanoparticles. Before immobilization, we conjugated protein (PDZ) to the nanoparticles using a solution-phase protocol. We initially tried direct conjugation of PDZ to the gold nanorods via a cysteine linker. […] We then developed a DNA-mediated conjugation approach. This approach, through the rigid nature of double-stranded DNA, allows for control over the time-average distance between the proteins and the GNPs. This controlled distance is crucial, as it prevents a direct interaction between the protein and the gold, thereby preventing denaturation. Moreover, it still allows the proteins to be placed close to the gold nanorods, which facilitates potent fluorescence enhancement of the fluorescently labeled binding partners (Supplementary Figure 1).

Another assay deals with PDZ. As to conditions: reference number not printed at place (probably ref 20), cited from earlier work. The source says:
From a double-exponential fit we extracted characteristic bound-state lifetimes of 16 ± 1 and 83 ± 16 ms, corresponding to k off values of 61 ± 5 and 12 ± 3 s^–1. The slow dissociation rate constant is similar to previously reported values for the same interaction with immobilized peptides (k off ≈ 6.3 s^–1). […] The underlying molecular mechanism leadi ... || In order to quantify association kinetics and related particle-to-particle differences, analysis is based on the average dark time (t d ) in between events (unbound-state lifetime). Together with the number of proteins per particle (n), and the concentration of the labeled peptide solution (c i ), it follows that kon=1/tdcin . The binding event frequency’s dependency on the number of proteins per particle was assessed through several measurements, using particle preparations with different average numbers of proteins per particle (Figure .D). Herein, a control sample (DNA decorated, 0 proteins ...

Assay [2] has as its target T1, Erbin PDZ (MBP-PDZ immobilized on gold nanorods via DNA) (Homo sapiens, UniProt Q96RT1).
T1 construct: Since neither the utilized PDZ domain nor MBP contains natural cysteines; single introduced cysteine in the linker between MBP and PDZ (handle for DNA coupling); host or cells: E. coli BL21(DE3)
Nature of the assay: single-molecule plasmon-enhanced fluorescence binding kinetics of PDZ-peptide interaction.

Assay [3] can be described thus: unspecific binding of labeled peptide to DNA-coated gold nanoparticles without protein (negative control). As to conditions: DNA decorated, 0 proteins per particle; 60 ms exposure, 1 nM labeled peptide in PBS. The source says: 2 Characterization of the PDZ-peptide binding interactions. (A) Typical microcopy FOV of the immobilized gold nanoparticles. Each FOV (∼ 43 μm by 43 μm) typically contains around 100 stochastically immobilized particles, yielding average interparticle distances of several micrometers. A time trace of one of the gold nanoparticles is shown, on which the peptide–protein binding events can be seen as fluorescence bursts. An expanded region of the time trace showcases a few examples of individual bright-times and dark-times. (B) Typical signals obtained from peptide binding on a gold nanorod (blue) and on the glass (red). (C) Plot depicting the distribution of bright times (bound-state lifetimes) of the protein-peptide interactions, based on all recorded particles. […]
In order to quantify association kinetics and related particle-to-particle differences, analysis is based on the average dark time (t d ) in between events (unbound-state lifetime). […] The binding event frequency’s dependency on the number of proteins per particle was assessed through several measurements, using particle preparations with different average numbers of proteins per particle (Figure .D). […] Dim fluorescence signals that would have been lost in unenhanced studies can now readily be detected, giving rise to more accurate event detection, and thus, a more representative k on value.

Assay [4] relates to PDZ (MBP-PDZ immobilized on gold nanorods). Nature of the assay: urea-mediated unfolding/refolding of immobilized PDZ, read out by peptide binding kinetics. The assay is classed as biochemical. The source says:
Next, we employed the platform to monitor protein unfolding and refolding. […] After validating that the observed event rate decrease was not caused by protein dissociation from the GNPs (Supplementary Figure 8), we next characterized the concentration dependency of this urea-mediated PDZ unfolding (Figure B). The protein-peptide binding frequency, and thus PDZ conformational integrity, clearly decreases in a urea concentration-dependent manner.
3 Urea-mediated PDZ denaturation. […] (B) Left/blue data points: PDZ-peptide binding event frequencies at different urea concentrations. To prevent cumulative and/or time-mediated influences, measurements at each concentration were performed with a fresh sample. Error bars represent the effect of each sample’s Poisson distribution of the number of proteins per particle on the average binding frequencies. Right/green data points: PDZ-peptide binding event frequencies of a similar sample, after incubation at 6.4 M urea and subsequent removal thereof. (C) Bright-time distribution of the PDZ-peptide binding events at different urea concentrations. […] The 95% confidence interval is obtained by propagating 1.96 SE of the corresponding tb fits.
5 minute steps at 5000 rpm each). After each centrifugation step, supernatants were discarded, and pellets were re-dissolved (200 µL of 25 mM HEPES (pH 7.4) after the first spin step, 200 µL of milliQ after step 2 and 3, and 150 µL of 10 mM HEPES (pH 7.4) + 0.0025 w/v% Tween20 + 1 mM MgCl2 after step 4.
For each reaction, 5.0 µL of protein-DNA conjugate was added to a 150 µL particle solution as prepared above. Added protein-DNA concentrations varied from 250 pM to 2 µM depending on the desired number of proteins per particle.
Reactions were either incubated for 2 hours at room temperature (~21 °C), or overnight in the fridge (4 °C). After incubation, 1.5 µL of 20 w/v% BSA in PBS was added to each sample, following an additional 15 minutes of incubation.
Next, samples were washed using 4 centrifugal steps (5 minutes at 5000 rpm and 4 °C each). After each spin step, supernatants were removed, and particles were re-suspended using 10 mM HEPES pH 7.4, 0.0025 w/v% Tween20, 1 mM MgCl2, 0.2 w/v% BSA (150 µL after step 1-3, 75 µL after step 4).
Functionalized gold nanoparticle concentrations were determined through absorption measurements on a Thermo Scientific Nanodrop 2000 apparatus. Fluorescence spectroscopy-based protein quantifications were performed through fluorescence measurements on a Varioskan Lux platereader (500 nm excitation, 12nm bandwidth, low dynamic range, […]
Sample preparation for microscopy measurements
Glass microscopy slides (Menzel #1.5 24*40 mm) were sonicated in MeOH for 15 minutes, and blown dry using nitrogen gas afterwards. Next, slides were plasma treated for 1 minute. Imaging spacer stickers were added to the cleaned glass slides. Particles were diluted to OD = 0.1 (at 650 nm, 1 cm pathlength) in PBS, and for each sample 50 µL was pipetted into the imaging spacer. Samples were incubated for at least 5 minutes, after which the majority of particles were firmly immobilized. Depending on the measurement, samples were used as described, or briefly washed with PBS (unfolding/refolding measurements).
Fluorescence microscopy measurements
Samples were measured through fluorescence microscopy. The utilized setup’s main components consi sted of a Coherent OBIS 637 nm laser, Nikon eclipse Ti2 microscope body, Apo TIRF 60x 1.49 NA DIC N2 Oil objective, and Prime BSI Express CMOS camera. All measurements were performed using TIRF illumination. Sample and imaging conditions […]
Table S.2. Sample and imaging conditions per experiment.
Experiment/associated Laser power (mW): Exposure (ms): Labeled peptide
Figure(s): concentration (nM):
Kinetic analysis – 50 20 1 dissociation kinetics. Figure
Kinetic analysis: association 50 60 1 […]
Peptide and urea solutions were all prepared in PBS. […]

The subject of assay [5] is ATTO 532-PDZ decorated gold nanoparticles. In words: stability of GNP-protein conjugate to urea (fluorescence of ATTO 532-PDZ on particles). As to conditions: 4 M urea, 15 minutes, then exchanged for PBS; five particles, 532 nm laser. On the procedure: Supplementary Figure 7. Fluorescence polarization curve of the interaction between MBP-PDZ (no DNA attached) ௣ ) + Aଶ , yields a Kd (x0) of 0.2 µM (p set to 1 and ATTO 655-labeled peptide. The fit (y =((Aଵ −Aଶ )/(1 + ቀ[௣௥௢௧௘௜௡ ]௄೏ ቁ to represent 1:1 binding). Measurement performed with 10 nM peptide in 10 mM HEPES pH 7.4, 150 mM NaCl, 0.1 v/v% Tween 20, 0.1 w/v% BSA, 1 mM DTT.
Supplementary Figure 8. Mean fluorescence intensities of five ATTO 532- PDZ decorated gold nanoparticles before and after exposure to 4 M urea. Immobilized particles were briefly imaged with a 532 nm laser before exposure to urea, with bare PBS in the bulk solution. Next, the laser was turned off, urea was added towards 4 M, and the sample was incubated for 15 minutes. Afterwards, the urea solution was exchanged for fresh PBS, the laser turned on, and fluorescence intensities measured again.
ATTO 532-labeled PDZ proteins remained on the particles.
(also on this page, place not known: inte raction =( (Aଵ −A ଶ)/(1 ቀ [௣௥௢௧௘௜௡] ௄೏ 350Polarization (mP) P1, before P1, after P2, before P2, after P3, before P3, after P4, before P4, after P5, before P5, after 8000Mean fluorescence intensity (counts))

T1 sequence (Q96RT1 1321-1410 limits assumed): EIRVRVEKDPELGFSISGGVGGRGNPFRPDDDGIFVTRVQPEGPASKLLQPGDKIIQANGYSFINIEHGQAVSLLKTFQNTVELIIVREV

For “H-[C(ATTO655)]GAGRGSIDTWV-OH [ATTO 655-labeled peptide, Atto-655 labeled peptide purchased from SB Peptide]”, the “peptide binding of directly conjugated PDZ” value in assay [1] is recorded as “no peptide binding”. The “k on (previously reported)” value in the assay on PDZ (PAINT experiments) is “≈ 3.6 × 10^5 M^–1 s^–1”. Besides, the “k off (previously reported)” value in the assay with PDZ (same interaction with immobilized peptides, integration time 60 ms) is recorded as “≈ 6.3 s^–1”. Also, in assay [2] (all particles (Figure 2C), also on single particles (Supplementary Figure 6)), the “distribution of bound-state lifetimes” value is on record as “double exponential”. In addition, the “characteristic bound-state lifetime, short component” value in assay [2] (double-exponential fit of bright times, all recorded particles, 20 ms exposure, 50 mW 637 nm laser, TIRF, 1 nM labeled peptide in PBS) was found to be 16 ± 1 ms. Moreover, the “characteristic bound-state lifetime, long component” value in assay [2] (double-exponential fit of bright times, all recorded particles, 20 ms exposure, 50 mW 637 nm laser, TIRF, 1 nM labeled peptide in PBS, less frequent events) is recorded as 83 ± 16 ms. In addition, the k on entry in assay [2] (linear fit of event frequency vs average number of proteins per particle, kon=1/tdcin, 60 ms exposure, 50 mW, 1 nM labeled peptide in PBS) is listed as “(1.2 ± 0.1) × 10^7 M^–1 s^–1”. Also, in assay [2] (linear fit, intercept 0, 60 ms exposure, 1 nM labeled peptide in PBS), the “slope of binding event frequency vs number of proteins per particle” value worked out at 12 mHz/protein. Moreover, the “event frequency on control particles (unspecific binding)” value in assay [3] was 2 mHz.

Take `NC(N)=O` [urea]: in assay [4] (0.2 M urea, 2 nM labeled peptide in PBS, within Poisson distribution), the “average PDZ-peptide binding event frequency at 0.2 M urea” value is “slight increase”. Further, the “time for refolding of PDZ after urea removal” value in assay [4] (after 6.4 M urea, time required for fluid exchange and initiation of imaging) is at most 1 min. For the same molecule, the “k off values at different urea concentrations” value in assay [4] (based on dominant short lifetimes of double exponential fits, 2 nM labeled peptide in PBS, 40 ms exposure) is recorded as “no significant deviations”. Moreover, the “bound-state lifetimes for increasing urea concentrations” value in assay [4] (bright time distributions, 2 nM labeled peptide in PBS, 40 ms exposure) is on record as “did not significantly change”. Also, the “PDZ-peptide binding frequency after removal of urea (refolding)” value in assay [4] (pre-incubation with 6.4 M urea for 20 minutes, then washed, 2 nM labeled peptide in PBS) was “recovered toward initial levels”. In addition, the “occurrence of PDZ-peptide interactions at 4.0 M urea” value in assay [4] (time traces of a particle before and after 4.0 M urea, 2 nM labeled peptide in PBS) is “terminates the occurrence of PDZ-peptide interactions”. Further, in assay [5], the “fluorescence intensity of ATTO 532-PDZ decorated particles after urea exposure” value is given as “no reduced fluorescence intensities”.
